Experimental data: ChEMBL document CHEMBL1201862, “PubChem BioAssay data set” (2004)
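The compound was tested at five concentrations on cells cultured in 96-well plates, with a 48-hour exposure period. GI50 = concentration required for 50% inhibition of growth.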 The source made the active and inactive calls. No stated cut-off is given here; in the data, active = GI50 up to about 1.1 µM and inactive = higher.

Legend:
Assay in all cases: NCI anticancer screen, dose series, 48 h
NCI/ADR-RES = system: NCI/ADR-RES
COLO 205 = system: COLO 205
SNB-75 = system: SNB-75
NCI-H460 = system: NCI-H460
KM12 = system: KM12
UACC-257 = system: UACC-257
SW-620 = system: SW-620
UACC-62 = system: UACC-62
ACHN = system: ACHN
MDA-N = system: MDA-N
SK-MEL-2 = system: SK-MEL-2
BT-549 = system: BT-549
K562 = system: K562
SNB-19 = system: SNB-19
HOP-92 = system: HOP-92
OVCAR-3 = system: OVCAR-3
NCI-H226 = system: NCI-H226
OVCAR-4 = system: OVCAR-4
OVCAR-8 = system: OVCAR-8
HCT-116 = system: HCT-116
MDA-MB-435 = system: MDA-MB-435
786-0 = system: 786-0
NCI-H23 = system: NCI-H23
OVCAR-5 = system: OVCAR-5
MDA-MB-231 = system: MDA-MB-231
U-251 = system: U-251
IGROV-1 = system: IGROV-1
MOLT-4 = system: MOLT-4
EKVX = system: EKVX
SK-OV-3 = system: SK-OV-3
HT-29 = system: HT-29
T47D = system: T47D
RPMI-8226 = system: RPMI-8226
SN12C = system: SN12C
SF-295 = system: SF-295
UO-31 = system: UO-31
RXF 393 = system: RXF 393
Hs-578T = system: Hs-578T
SK-MEL-5 = system: SK-MEL-5
DU-145 = system: DU-145
CCRF-CEM = system: CCRF-CEM
TK-10 = system: TK-10
PC-3 = system: PC-3
LOX IMVI = system: LOX IMVI
A549 = system: A549
SF-268 = system: SF-268
MCF7 = system: MCF7
HCT-15 = system: HCT-15
HCC 2998 = system: HCC 2998
SF-539 = system: SF-539
CAKI-1 = system: CAKI-1
HOP-62 = system: HOP-62
SK-MEL-28 = system: SK-MEL-28
NCI-H522 = system: NCI-H522
Malme-3M = system: Malme-3M
M14 = system: M14
HL-60 = system: HL-60
A498 = system: A498

Measured: GI50

CCOC(=O)/C=C(/C(=O)OCC)n1cc(C)c(=O)n(Cc2cnnn2CCCCOC(C)=O)c1=O
inactive: NCI/ADR-RES 26.7 µM | COLO 205 3.54 µM | SNB-75 > 100 µM | NCI-H460 23.3 µM | KM12 44.2 µM | UACC-257 26.3 µM | SW-620 5.55 µM | UACC-62 19 µM | ACHN 11.2 µM | MDA-N 55.3 µM | SK-MEL-2 86.9 µM | BT-549 10.5 µM | K562 18.7 µM | SNB-19 > 100 µM | OVCAR-3 16.8 µM | NCI-H226 > 100 µM | OVCAR-4 48.5 µM | OVCAR-8 22.8 µM | HCT-116 15.1 µM | MDA-MB-435 21.2 µM | 786-0 15.6 µM | NCI-H23 28.7 µM | OVCAR-5 19.6 µM | MDA-MB-231 64.6 µM | U-251 32.4 µM | IGROV-1 19 µM | MOLT-4 18.2 µM | EKVX 21.8 µM | SK-OV-3 > 100 µM | HT-29 19.2 µM | T47D 24 µM | RPMI-8226 17.1 µM | SN12C 45.2 µM | SF-295 > 100 µM | UO-31 18.4 µM | RXF 393 33.3 µM | Hs-578T 45.5 µM | SK-MEL-5 30 µM | DU-145 > 100 µM | CCRF-CEM 1.13 µM | TK-10 12.6 µM | PC-3 68.5 µM | LOX IMVI 18.4 µM | A549 > 100 µM | SF-268 36.6 µM | MCF7 13.6 µM | HCC 2998 > 10 µM | SF-539 15.1 µM | CAKI-1 5.79 µM | HOP-62 > 100 µM | SK-MEL-28 25.2 µM | NCI-H522 3.21 µM
active: HOP-92 0.0906 µM
12.6 µM: HCT-15

Cc1ccc(/C=c2\c(=O)[nH]c3nc4ccccc4c(=O)n23)cc1
34.8 µM: HCT-15
inactive: NCI/ADR-RES 39.4 µM | COLO 205 18.3 µM | SNB-75 28.6 µM | KM12 45.7 µM | UACC-257 70 µM | SW-620 21.8 µM | UACC-62 33.5 µM | ACHN > 100 µM | MDA-N 23.8 µM | Malme-3M 45.5 µM | SK-MEL-2 62.2 µM | BT-549 21.6 µM | SNB-19 34.9 µM | HOP-92 55.2 µM | OVCAR-3 32.8 µM | M14 37.5 µM | OVCAR-4 > 100 µM | OVCAR-8 40.9 µM | HCT-116 28.5 µM | MDA-MB-435 24.9 µM | 786-0 39.4 µM | NCI-H23 34.4 µM | OVCAR-5 > 100 µM | MDA-MB-231 43.9 µM | U-251 19.9 µM | MOLT-4 38.8 µM | SK-OV-3 > 100 µM | T47D 41.9 µM | RPMI-8226 22.9 µM | SN12C 28.8 µM | SF-295 73.1 µM | UO-31 57.5 µM | RXF 393 29.6 µM | Hs-578T 31 µM | DU-145 53 µM | CCRF-CEM 30.7 µM | TK-10 > 100 µM | PC-3 55.5 µM | LOX IMVI 29.1 µM | A549 94.4 µM | SF-268 45.5 µM | MCF7 39.8 µM | HCC 2998 25.4 µM | SF-539 18.8 µM | HL-60 29.2 µM | CAKI-1 > 100 µM | HOP-62 > 100 µM | SK-MEL-28 43.9 µM | NCI-H522 29 µM

CC(C)C1=CC(=O)C(C)(C2C(O)CC3(C)C4CC=C5C(CCC(OC6OC(CO)C(O)C(O)C6OC6OC(C)C(O)C(O)C6O)C5(C)C)C4(C)C(=O)CC23C)O1 (centres undefined)
> 100 µM: HCT-15
inactive: NCI/ADR-RES > 100 µM | COLO 205 > 100 µM | SNB-75 > 100 µM | NCI-H460 > 100 µM | KM12 > 100 µM | UACC-257 > 100 µM | A498 > 100 µM | SW-620 > 100 µM | UACC-62 > 100 µM | ACHN > 100 µM | MDA-N > 100 µM | Malme-3M > 100 µM | BT-549 > 100 µM | K562 > 100 µM | SNB-19 > 100 µM | HOP-92 > 100 µM | OVCAR-3 > 100 µM | M14 > 100 µM | NCI-H226 > 100 µM | OVCAR-4 > 100 µM | OVCAR-8 > 100 µM | HCT-116 > 100 µM | MDA-MB-435 > 100 µM | 786-0 > 100 µM | NCI-H23 > 100 µM | OVCAR-5 > 100 µM | MDA-MB-231 > 100 µM | U-251 > 100 µM | IGROV-1 > 100 µM | MOLT-4 > 100 µM | EKVX > 100 µM | SK-OV-3 > 100 µM | HT-29 > 100 µM | T47D > 100 µM | RPMI-8226 > 100 µM | SN12C > 100 µM | SF-295 > 100 µM | UO-31 > 100 µM | RXF 393 > 100 µM | Hs-578T > 100 µM | SK-MEL-5 > 100 µM | DU-145 > 100 µM | CCRF-CEM > 100 µM | PC-3 > 100 µM | A549 > 100 µM | SF-268 > 100 µM | MCF7 > 100 µM | HCC 2998 > 100 µM | SF-539 > 100 µM | CAKI-1 > 100 µM | HOP-62 > 100 µM | SK-MEL-28 > 100 µM | NCI-H522 > 100 µM

COc1cc2c(cc1C)NC(=O)/C2=C/c1c(Cl)n(C)c2ccccc12
inactive: NCI/ADR-RES 3.61 µM | COLO 205 5.11 µM | SNB-75 3.34 µM | NCI-H460 6.71 µM | KM12 3.34 µM | UACC-257 11.9 µM | A498 5.86 µM | SW-620 3.05 µM | UACC-62 5.73 µM | ACHN 10.3 µM | MDA-N 2.15 µM | Malme-3M 8 µM | SK-MEL-2 9.66 µM | BT-549 4.57 µM | K562 3.02 µM | SNB-19 12.8 µM | OVCAR-3 4.11 µM | M14 10.6 µM | NCI-H226 4.53 µM | OVCAR-4 6.87 µM | OVCAR-8 12.5 µM | HCT-116 5.46 µM | MDA-MB-435 1.71 µM | 786-0 12.7 µM | NCI-H23 6.27 µM | OVCAR-5 12.5 µM | MDA-MB-231 12.9 µM | U-251 10 µM | IGROV-1 3.81 µM | MOLT-4 2.15 µM | EKVX 6.68 µM | SK-OV-3 12.4 µM | HT-29 6.08 µM | T47D 2.62 µM | RPMI-8226 3.13 µM | SN12C 12.8 µM | SF-295 7.66 µM | UO-31 7.05 µM | RXF 393 4.1 µM | Hs-578T 3.42 µM | SK-MEL-5 4.79 µM | DU-145 10.3 µM | CCRF-CEM 1.9 µM | TK-10 12.4 µM | PC-3 5.38 µM | LOX IMVI 7.69 µM | A549 10.2 µM | SF-268 4.48 µM | MCF7 3.45 µM | HCC 2998 5.18 µM | SF-539 12.1 µM | HL-60 2.61 µM | CAKI-1 5.06 µM | HOP-62 11.1 µM | SK-MEL-28 13 µM
3.98 µM: HCT-15
